Reference: US20240174624A1, “CHIRAL N-(1,3,4-OXADIAZOLE-2-YL)PHENYL CARBOXYLIC ACID AMIDES AND THEIR USE AS HERBICIDES” (Bayer Aktiengesellschaft, priority 2021, published 2024)

Tests used:
[1] = system: ZEAMX; experiment: Pre-emergence damage to crop plants; format: in vivo, Zea mays; conditions: 80 g a.i./ha, comparative experiment
Source text: (§1) Seeds of monocotyledonous and dicotyledonous weed plants and crop plants are laid out in sandy loam soil in wood-fibre pots and covered with soil. The compounds of the invention, formulated in the form of wettable powders (WP) or as emulsion concentrates (EC), are then applied to the surface of the covering soil in the form of an aqueous suspension or emulsion at a water application rate equivalent to 600 to 800 l/ha, with addition of 0.2% wetting agent. After the treatment, the pots are placed in a greenhouse and kept under good growth conditions for the trial plants. The damage to the test plants is scored visually after a test period of 3 weeks by comparison with untreated controls (herbicidal activity in percent (%): 100% activity=the plants have died, 0% activity=like control plants). […] The tables below illustrate, in an illustrative manner, the post-emergence herbicidal action of the compounds of the invention, the herbicidal activity being stated in percent. In the experiments that follow, the herbicidal action of the compounds of the invention and that of the corresponding known racemic compounds closest from WO2012126932 and WO2018202535 were compared under the above-specified conditions by the pre-emergence and post-emergence method. The example numbers given in the tables relate to the compounds disclosed in the respective documents.

[2] = system: BRSNW; experiment: Pre-emergence damage to crop plants; format: in vivo, Brassica napus; conditions: 20 g a.i./ha, comparative experiment
Source text: as §1

[3] = system: ECHCG; experiment: Post-emergence herbicidal action; format: in vivo, Echinochloa crus-galli; conditions: 20 g a.i./ha, comparative experiment
Method: (§2) Seeds of monocotyledonous and dicotyledonous weed and crop plants are laid out in sandy loam soil in wood-fibre pots, covered with soil and cultivated in a greenhouse under good growth conditions. 2 to 3 weeks after sowing, the test plants are treated at the one-leaf stage. The compounds of the invention, formulated in the form of wettable powders (WP) or as emulsion concentrates (EC), are then sprayed onto the green parts of the plants in the form of an aqueous suspension or emulsion at a water application rate equating to 600 to 800 l/ha, with addition of 0.2% wetting agent. After the test plants have been left to stand in the greenhouse under optimal growth conditions for about 3 weeks, the action of the preparations is assessed visually in comparison to untreated controls (herbicidal action in percent (%): 100% activity=the plants have died, 0% activity=like control plants). […] The tables below illustrate, in an illustrative manner, the post-emergence herbicidal action of the compounds of the invention, the herbicidal activity being stated in percent. In the experiments that follow, the herbicidal action of the compounds of the invention and that of the corresponding known racemic compounds closest from WO2012126932 and WO2018202535 were compared under the above-specified conditions by the pre-emergence and post-emergence method. The example numbers given in the tables relate to the compounds disclosed in the respective documents.

[4] = system: SETVI; experiment: Post-emergence herbicidal action; format: in vivo, Setaria viridis; conditions: 5 g a.i./ha, comparative experiment
Method: as §2

[5] = system: VIOTR; experiment: Post-emergence herbicidal action; format: in vivo, Viola tricolor; conditions: comparative experiment
Method: as §2

[6] = system: TRZAS; experiment: Post-emergence damage to crop plants; format: in vivo, Triticum aestiva; conditions: 5 g a.i./ha, comparative experiment
Method: as §2

[7] = system: GLXMA; experiment: Post-emergence damage to crop plants; format: in vivo, Glycine max; conditions: 5 g a.i./ha, comparative experiment
Method: as §2, with “The example numbers given in the tables relate to the compounds disclosed in the respective documents.” left out

## Cc1nnc(NC(=O)c2ccc(C(F)F)c([S+](C)[O-])c2Cl)o1 (racemic) [7-48 from WO2018202535, 2-chloro-N-(5-methyl-1,3,4-oxadiazol-2-yl)-3-[(rac)-methylsulfinyl]-4-(difluoromethyl)benzamide, reference compound]
[1]
  Damage to ZEAMX: 50%
[2]
  Damage to BRSNW: 80%
[3]
  Herbicidal action against ECHCG: 80%
[4]
  Herbicidal action against SETVI: 80%
[5]; 5 g a.i./ha
  Herbicidal action against VIOTR: 60%
[5]; 20 g a.i./ha
  Herbicidal action against VIOTR: 80%
[6]
  Damage to TRZAS: 40%
[7]
  Damage to GLXMA: 60%
